{
  "source": "patent US7186725B2",
  "about": "“Anti-inflammatory compositions and methods” (Genzyme Corporation, priority 2003, dated 2007)",
  "key": {"[1]": {"system": "IL-1β", "experiment": "Cellular assay: Mediator Release, IL-1β", "format": "cell-based", "conditions": "IL-1β release"}, "[2]": {"system": "IL-10", "experiment": "Cellular assay: Mediator Release, IL-10", "format": "cell-based", "conditions": "IL-10 release"}, "[3]": {"system": "IL-5", "experiment": "Cellular assay: Mediator Release, IL-5", "format": "cell-based", "conditions": "IL-5 release"}, "[4]": {"system": "IL-6", "experiment": "Cellular assay: Mediator Release, IL-6", "format": "cell-based", "conditions": "IL-6 release"}, "[5]": {"system": "Interferon-γ", "experiment": "Cellular assay: Mediator Release, Interferon-γ", "format": "cell-based"}, "[6]": {"system": "TNF-α", "experiment": "Cellular assay: Mediator Release, TNF-α", "format": "cell-based"}, "[7]": {"system": "NF-κB", "experiment": "Cellular assay: Transcription Response, NF-κB", "format": "cell-based"}, "[8]": {"system": "Distal colitis induced by DNBS", "experiment": "Inflammatory Bowel Disease: DNBS-induced distal colitis in rats", "format": "in vivo", "conditions": "rat", "description": "CM Hogaboam et al., Eur. J. Pharmacol.; 309; 261 (1996) Groups of 3 derived-male, overnight-fasted rats weighing 150±10 g are used. Distal colitis is induced by intra-colonic instillation of 0.5 ml/rat of DNBS (2,4-dinitrobenzene sulfonic acid, 60 mg/ml in ethanol 30%) after which air (2 ml) is gently injected through the cannula to ensure that the solution remains in the colon. […] The animals are sacrificed 24 hours after the final dose of test compound administration and each colon is removed and weighed."}, "[9]": {"system": "Septic Shock, Lipopolysaccharide", "experiment": "Septic Shock, Lipopolysaccharide plus galactosamine in mice", "format": "in vivo, C57/BL mice", "conditions": "for Total Deaths: N 6, 3-day period", "description": "Groups of 4 or 6 C57/BL mice weighing 18–20g were used. […] The blank control group was only applied 10% cremophor/10% ethanol IP and without LPS challenge. Mortality is recorded every 12 hours after challenge over a 3-day period. Protection of mortality by 50 percent or more (≧50%) indicates significant activity."}, "[10]": {"system": "Autoimmune Encephalomyelitis (EAE)", "experiment": "Autoimmune Encephalomyelitis (EAE) model, PLP 139-151 immunized mice", "format": "in vivo, SJL/J mice", "conditions": "24 mg/kg daily day 1 to 16, FIG. 2"}},
  "data": [
    {"compound": "CCNC(=O)Nc1nc2cc(C)c(C)cc2[nH]1", "note": "[Compound 56, 1-(5,6-dimethyl-1H-benzoimidazol-2-yl)-3-ethyl urea]", "values": [
      {"measurement": "inhibition at 10000 µM", "setting": "[1]; Conc. 10 mM", "value": 91, "unit": "%"},
      {"measurement": "IC50", "setting": "[1]", "value": 2.06, "unit": "µM"},
      {"measurement": "inhibition at 10000 µM", "setting": "[2]; Conc. 10 mM", "value": 63, "unit": "%"},
      {"measurement": "IC50", "setting": "[2]", "value": 5.74, "unit": "µM"},
      {"measurement": "inhibition at 10000 µM", "setting": "[3]; Conc. 10 mM", "value": 54, "unit": "%"},
      {"measurement": "IC50", "setting": "[3]", "value": 9.28, "unit": "µM"},
      {"measurement": "inhibition at 10000 µM", "setting": "[4]; Conc. 10 mM", "value": 82, "unit": "%"},
      {"measurement": "IC50", "setting": "[4]", "value": 3.89, "unit": "µM"},
      {"measurement": "IC50", "setting": "[5]", "value": 6.49, "unit": "µM"},
      {"measurement": "inhibition at 10000 µM", "setting": "[5]; Conc. 10 mM", "value": 57, "unit": "%"},
      {"measurement": "IC50", "setting": "[6]", "value": 1.94, "unit": "µM"},
      {"measurement": "inhibition at 10000 µM", "setting": "[6]; Conc. 10 mM", "value": 89, "unit": "%"},
      {"measurement": "IC50", "setting": "[7]", "value": 9.65, "unit": "µM"},
      {"measurement": "inhibition at 10000 µM", "setting": "[7]; Conc. 10 mM", "value": 52, "unit": "%"},
      {"measurement": "Ave. (colon to 100 g body weight ratio)", "setting": "[8]; PO 5 mg/kg × 7", "value": 0.678},
      {"measurement": "Inhibition (of net increase of colon to 100 g body weight ratio, relative to vehicle with DNBS)", "setting": "[8]; PO 5 mg/kg × 7", "value": 12, "unit": "%"},
      {"measurement": "Net Inc. (net increase of colon to 100 g body weight ratio)", "setting": "[8]; PO 5 mg/kg × 7", "value": 0.381},
      {"measurement": "response in IBD model at the highest dose", "setting": "[8]; PO 25 mg/kg", "value": "statistically significant response"},
      {"measurement": "Ave. (colon to 100 g body weight ratio)", "setting": "[8]; PO 25 mg/kg × 7", "value": 0.585},
      {"measurement": "Inhibition (of net increase of colon to 100 g body weight ratio, relative to vehicle with DNBS)", "setting": "[8]; PO 25 mg/kg × 7", "value": 34, "unit": "%"},
      {"measurement": "Net Inc. (net increase of colon to 100 g body weight ratio)", "setting": "[8]; PO 25 mg/kg × 7", "value": 0.288},
      {"measurement": "activity in IBD model", "setting": "[8]; PO 25 and 5 mg/kg", "value": "dose responsive activity"},
      {"measurement": "Inhibition (protection of mortality)", "setting": "[9]; IP 5 mg/kg", "value": 17, "unit": "%"},
      {"measurement": "Total Deaths", "setting": "[9]; IP 5 mg/kg", "value": 5},
      {"measurement": "Inhibition (protection of mortality)", "setting": "[9]; IP 25 mg/kg", "value": 50, "unit": "%"},
      {"measurement": "response in septic shock model at the highest dose", "setting": "[9]; IP 25 mg/kg", "value": "statistically significant response"},
      {"measurement": "Total Deaths", "setting": "[9]; IP 25 mg/kg", "value": 3},
      {"measurement": "activity in septic shock model", "setting": "[9]; IP 25 and 5 mg/kg", "value": "dose responsive activity"},
      {"measurement": "effect on disease onset (ADSS)", "setting": "[10]", "value": "significant effect"}
    ]}
  ]
}
